In patent US20250090510A1, “eIF4G1-eIF1 INHIBITORS AND USE THEREOF” (YEDA RESEARCH AND DEVELOPMENT CO. LTD., priority 2022, published 2025):

Biological target: T1, eIF4E-eIF4G1 complex (Homo sapiens, UniProt Q04637)
T1 construct: co-immunoprecipitation of endogenous eIF4G1 in HEK293T cells expressing HA-eIF1 or HA-eIF4E was performed; endogenous in cells; host or cells: HEK293T (eIF4G1 endogenous; HA-eIF4E transfected)
Experiment: Co-immunoprecipitation of endogenous eIF4G1 with HA-eIF4E
Format: cell-based
Settings: HEK293T; i14G1-10 20 μM, i14G1-12 10 μM; 4 h
Method: FIGS. 2A-C: The effect of i14G1-10 and i14G1-12 on eIF1-eIF4G1 and eIF4E-eIF4G1 complexes. (2A-B) HA-eIF1 and HA-eIF4E were each transfected into HEK293T cells and 48 h after transfection cells were treated with DMSO or i14G1-10 (2A) or i14G1-12 (2B) for 4 h, followed by immunoprecipitation of HA-eIF1 or HA-eIF4E using anti-HA-agarose beads. Western blot was run to check co-immunoprecipitation of endogenous eIF4G1 with HA-eIF1 or HA-eIF4E. The graphs represent the co-immunoprecipitation of eIF4G1 with HA-eIF1 (right) or HA-eIF4E (left). Co—IP data shown as mean±SEM of 4-7 independent experiments. The asterisks denote statistically significant difference compared to DMSO, according to Student's t-tests (one-tailed, paired). *p<0.05. (2C) HEK293T cells were treated with DMSO, i14G1-10, or i14G1-12 for 4 h, followed by cell lysis. Respective cell lysates were incubated with cap analog (γ-Aminohexyl-m7GTP) beads for 2 h to precipitate bound eIF4E. Western blot was performed to check co-precipitation of eIF4G1 along with eIF4E on the cap-analog beads. The graph represents the binding fraction of eIF4G1 and eIF4E to the cap-analog beads (mean±SEM) with DMSO (black), i14G1-10 (blue), and i14G1-12 (red), n=6. The asterisks denote statistically significant difference compared to DMSO, according to Student's t-tests (one-tailed, paired). *p<0.05; **p<0.01.
Co-immunoprecipitation. HEK293T cells were transfected with 5 μg of HA-eIF1 or HA-eIF4E plasmids along with 10 ng GFP plasmid to check for transfection efficiency using Jetprime reagent as per manufacturer's protocol. After 48 h, HA-eIF1 and HA-eIF4E expressing HEK293T cells were incubated with DMSO, i14G1-10 (20 μM), and […] (10 μM). 4 h later, cells were lysed using IP buffer (20 mM Tris pH8, 125 mM NaCl, 10% glycerol, 50 mM NaF, 1 mM […], 0.5% NP-40, and 0.2 mM EDTA) supplemented with fresh protease inhibitor cocktail (1:100) and PMSF 200 μM (1:100). Protein extract was taken for immunoprecipitation using either monoclonal anti-HA-agarose antibody (Sigma) or control IgG antibody in IP buffer, at 4° C. for 2 hours. […]

T1 sequence (Q04637 whole entry): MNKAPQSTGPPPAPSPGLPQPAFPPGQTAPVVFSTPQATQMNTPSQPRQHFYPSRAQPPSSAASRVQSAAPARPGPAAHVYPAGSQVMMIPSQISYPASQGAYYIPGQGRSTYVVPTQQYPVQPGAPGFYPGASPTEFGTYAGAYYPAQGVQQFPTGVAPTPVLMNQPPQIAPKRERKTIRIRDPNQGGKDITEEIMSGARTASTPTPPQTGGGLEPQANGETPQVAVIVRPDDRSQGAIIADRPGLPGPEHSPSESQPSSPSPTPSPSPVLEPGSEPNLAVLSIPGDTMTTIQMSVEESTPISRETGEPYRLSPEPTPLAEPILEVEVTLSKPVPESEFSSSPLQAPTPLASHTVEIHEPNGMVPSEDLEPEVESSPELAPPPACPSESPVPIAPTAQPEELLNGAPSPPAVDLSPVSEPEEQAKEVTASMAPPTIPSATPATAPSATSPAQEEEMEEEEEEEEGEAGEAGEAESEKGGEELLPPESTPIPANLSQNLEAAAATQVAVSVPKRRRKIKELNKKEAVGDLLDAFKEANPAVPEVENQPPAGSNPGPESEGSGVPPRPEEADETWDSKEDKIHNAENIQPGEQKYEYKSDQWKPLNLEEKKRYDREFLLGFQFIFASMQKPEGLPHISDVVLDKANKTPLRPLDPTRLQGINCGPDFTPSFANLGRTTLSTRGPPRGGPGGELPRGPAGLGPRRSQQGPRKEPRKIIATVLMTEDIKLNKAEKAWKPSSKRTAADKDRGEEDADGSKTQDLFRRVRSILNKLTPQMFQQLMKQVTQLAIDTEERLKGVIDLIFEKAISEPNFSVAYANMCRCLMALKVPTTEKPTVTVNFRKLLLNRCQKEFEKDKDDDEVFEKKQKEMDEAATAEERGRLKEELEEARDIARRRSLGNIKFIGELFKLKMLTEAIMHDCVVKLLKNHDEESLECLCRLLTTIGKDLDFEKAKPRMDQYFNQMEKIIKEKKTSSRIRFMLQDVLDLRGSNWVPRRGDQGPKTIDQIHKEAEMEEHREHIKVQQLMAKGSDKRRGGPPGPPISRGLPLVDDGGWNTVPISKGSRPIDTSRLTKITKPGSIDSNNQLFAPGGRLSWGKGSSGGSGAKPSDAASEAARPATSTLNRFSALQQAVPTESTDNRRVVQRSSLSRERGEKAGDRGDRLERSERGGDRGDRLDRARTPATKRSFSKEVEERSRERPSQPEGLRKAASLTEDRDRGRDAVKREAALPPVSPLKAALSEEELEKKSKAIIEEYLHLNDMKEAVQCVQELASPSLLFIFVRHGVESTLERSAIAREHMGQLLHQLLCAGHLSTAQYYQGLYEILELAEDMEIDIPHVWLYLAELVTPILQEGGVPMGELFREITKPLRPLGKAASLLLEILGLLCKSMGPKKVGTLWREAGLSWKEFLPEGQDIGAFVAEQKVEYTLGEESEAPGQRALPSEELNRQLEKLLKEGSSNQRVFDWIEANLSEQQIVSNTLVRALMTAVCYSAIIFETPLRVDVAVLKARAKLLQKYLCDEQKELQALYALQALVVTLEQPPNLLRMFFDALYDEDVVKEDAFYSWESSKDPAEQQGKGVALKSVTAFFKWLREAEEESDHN
T1 sequence (P06730 whole entry partner): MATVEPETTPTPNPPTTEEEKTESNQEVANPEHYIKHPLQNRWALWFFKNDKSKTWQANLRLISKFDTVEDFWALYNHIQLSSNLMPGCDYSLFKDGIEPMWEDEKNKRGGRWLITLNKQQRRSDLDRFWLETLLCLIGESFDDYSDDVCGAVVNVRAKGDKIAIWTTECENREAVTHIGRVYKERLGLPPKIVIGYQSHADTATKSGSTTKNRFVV

SMILES	enhancement of eIF4G1 binding to HA-eIF4E
O=C(/C=C/Sc1ccc(C(F)(F)F)cn1)c1ccccc1 [i14G1-10]	dramatic enhancement
Cn1ccnc1S/C(=C/C=C(C#N)C#N)c1ccc(Cl)cc1 [i14G1-12]	not significant
